Experimental data from patent publication US10597388B2, “Pyridazinone herbicides” (FMC CORPORATION, priority 2014, dated 2020).

Legend:
Test in all cases: Test E greenhouse herbicide test, pre- and postemergence
Format in all cases: in vivo
Details in all cases: Preemergence
[1] = system: Italian ryegrass (Lolium multiflorum)
Method in brief: (§1)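 Seeds were sown in silt loam and sprayed preemergence with compound in a non-phytotoxic solvent mix containing surfactant; for postemergence, plants at 2 to 18 cm (1- to 4-leaf stage) in peat-based potting medium were sprayed with the same formulation. After 14 to 21 d in a greenhouse, injury was rated visually against controls (0–100).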

[2] = system: arrowleaf sida (Sida rhombifolia)
Method in brief: as §1

[3] = system: beggarticks (hairy beggarticks, Bidens pilosa)
Method in brief: as §1

corn (Zea mays) = system: corn (Zea mays)
Method in brief: as §1

[4] = system: crabgrass, large (large crabgrass, Digitaria sanguinalis)
Method in brief: as §1

[5] = system: field bindweed (Convolvulus arvensis)
Method in brief: as §1

[6] = system: foxtail, giant (giant foxtail, Setaria faberii)
Method in brief: as §1

[7] = system: foxtail, green (green foxtail, Setaria viridis)
Method in brief: as §1

[8] = system: horseweed (Conyza canadensis)
Method in brief: as §1

[9] = system: lambsquarters (Chenopodium album)
Method in brief: as §1

[10] = system: momingglory (Ipomoea coccinea)
Method in brief: as §1

[11] = system: nightshade (eastern black nightshade, Solanum ptycanthum)
Method in brief: as §1

[12] = system: panicum, fall (fall panicum, Panicum dichotomiflorum)
Method in brief: as §1

[13] = system: ragweed (common ragweed, Ambrosia elatior)
Method in brief: as §1

[14] = system: sandbur (southem sandbur, Cenchrus echinatus)
Method in brief: as §1

[15] = system: velvetleaf (Abutilon theophrasti)
Method in brief: as §1

[16] = 62 g ai/ha, scale 0 to 100 (0 no effect, 100 complete control)
[17] = 125 g ai/ha, scale 0 to 100 (0 no effect, 100 complete control)
[18] = 16 g ai/ha, scale 0 to 100, 0 no effect, 100 complete control
[19] = 31 g ai/ha, scale 0 to 100, 0 no effect, 100 complete control

COC(=O)Oc1c(C)nn(C)c(=O)c1-c1c(C)sc2ccc(C)cc12 [Compound 80]
50: Plant response rating, Ryegrass, Italian [1, 18] | Plant response rating, Foxtail, Giant [6, 19] | Plant response rating, Foxtail, Green [7, 16]
95: Plant response rating, Panicum, Fall [12, 16]
25: Plant response rating, Arrowleaf Sida [2, 17] | Plant response rating, Field Bindweed [5, 19]
80: Plant response rating, Foxtail, Giant [6, 16] | Plant response rating, Panicum, Fall [12, 18]
85: Plant response rating, Beggarticks [3, 19] | Plant response rating, Foxtail, Giant [6, 17]
15: Plant response rating, Foxtail, Green [7, 19]
65: Plant response rating, Foxtail, Green [7, 17] | Plant response rating, Lambsquarters [9, 18] | Plant response rating, Morningglory [10, 19] | Plant response rating, Sandbur [14, 19]
90: Plant response rating, Panicum, Fall [12, 19] | Plant response rating, Velvetleaf [15, 17]
75: Plant response rating, Morningglory [10, 17] | Plant response rating, Nightshade [11, 18] | Plant response rating, Nightshade [11, 19] | Plant response rating, Sandbur [14, 17]
35: Plant response rating, Arrowleaf Sida [2, 16] | Plant response rating, Crabgrass, Large [4, 16] | Plant response rating, Crabgrass, Large [4, 17]
98: Plant response rating, Ryegrass, Italian [1, 16] | Plant response rating, Ryegrass, Italian [1, 17] | Plant response rating, Lambsquarters [9, 16] | Plant response rating, Nightshade [11, 17] | Plant response rating, Panicum, Fall [12, 17]
100: Plant response rating, Beggarticks [3, 16] | Plant response rating, Beggarticks [3, 17] | Plant response rating, Beggarticks [3, 18] | Plant response rating, Field Bindweed [5, 17] | Plant response rating, Horseweed [8, 16] | Plant response rating, Horseweed [8, 17] | Plant response rating, Horseweed [8, 18] | Plant response rating, Horseweed [8, 19] | Plant response rating, Lambsquarters [9, 17] | Plant response rating, Lambsquarters [9, 19] | Plant response rating, Nightshade [11, 16] | Plant response rating, Ragweed [13, 16] | Plant response rating, Ragweed [13, 17]
70: Plant response rating, Ryegrass, Italian [1, 19] | Plant response rating, Field Bindweed [5, 16] | Plant response rating, Morningglory [10, 16] | Plant response rating, Ragweed [13, 18] | Plant response rating, Ragweed [13, 19] | Plant response rating, Sandbur [14, 16] | Plant response rating, Velvetleaf [15, 16]
20: Plant response rating, Field Bindweed [5, 18] | Plant response rating, Velvetleaf [15, 19]
0: Plant response rating, Arrowleaf Sida [2, 18] | Plant response rating, Arrowleaf Sida [2, 19] | Plant response rating, Corn (corn (Zea mays); [16]) | Plant response rating, Corn (corn (Zea mays); [17]) | Plant response rating, Corn (corn (Zea mays); [18]) | Plant response rating, Corn (corn (Zea mays); [19]) | Plant response rating, Crabgrass, Large [4, 18] | Plant response rating, Crabgrass, Large [4, 19] | Plant response rating, Foxtail, Giant [6, 18] | Plant response rating, Foxtail, Green [7, 18] | Plant response rating, Morningglory [10, 18] | Plant response rating, Sandbur [14, 18] | Plant response rating, Velvetleaf [15, 18]
